Test results from patent publication US9605317B2, “Biomarkers for assessing peripheral neuropathy response to cancer treatment” (Janssen Pharmaceutica NV, priority 2009, dated 2017).
Where two headings read alike, the source gives them in different places.

Tests used:
[1] = system: patients; settings: cited from earlier work
[2] = system: patients with newly diagnosed multiple myeloma; settings: human, in vivo, 4 cycles
Experimental: A randomized, open-label, multicenter study was conducted that compared vincristine/adriamycin/dexamethasone (VAD) and VELCADE™/Dexamethasone as induction treatment prior to autologous hematopoietic stem cell transplantation (AHSCT) in patients up to (and including) the age of 65 with newly diagnosed multiple myeloma. Approximately 480 patients were included in this study. Subjects were randomized at diagnosis into one of 4 induction treatment arms: • A1 VAD (4 cycles) • A2 VAD (4 cycles) followed by Dexamethasone/cyclophosphomide/etoposide/cis-Platinum (DCEP) (2 cycles) • B1 VELCADE+dexamethasone (4 cycles) • B2 VELCADE+dexamethasone (4 cycles) followed by DCEP (2 cycles)
Randomization was stratified based on the initial β2 microglobulin level (> or ≦3 mg/l) and the presence of chromosome 13 abnormalities identified by fluorescence in situ hybridization (FISH) analysis. After induction treatment (Arms A1 and B1) or after consolidation treatment (Arms A2 and B2) all of the patients underwent AHSCT.
470 samples were sent to Illumina for genotyping on 2016 SNPs in 172 non-mitochondria genes. Out of the 470 samples, 29 samples are Hapmap control subjects, 3 samples are controls subjects from a Belgium family, and another 4 are samples from Example 1 for quality control. Therefore, there were totally 434 unique subjects from this study (103 in A1, 105 in A2, 111 in B1, 111 in B2 and 4 not treated).
After the quality control and filtering, 212 VELCADE treated subjects were included in the association analysis on non-mtSNPs.
Based on the raw p-values for the association tests, none of the significant associations identified in Example 1 were replicated in Example 2. […] Patients with homogenous genotype of the minor allele of rs4553808 (GG) tend to have earlier onset of peripheral neuropathy than those that contain only 1 or 0 copy of the minor allele (AA/AG): median time to onset was 68 days vs. 70 days.
The association with time and cumulative dosage of VELCADE™ to the onset of different levels of peripheral neuropathy in all 1908 SNPs in Example 2 was tested. No significant associations was identified after multiple testing correction using Bonfferoni (0.05/1908=2.62E-05).

[3] = system: patients with multiple myeloma; settings: cited from earlier work
[4] = system: subjects with previously untreated multiple myeloma; experiment: Example 1 randomized open-label study, VMP vs MP: treatment-emergent peripheral neuropathy; settings: human, in vivo, 54 weeks
Experimental: A randomized, open-label, multicenter study was conducted, consisting of 3 Phases: a Pre-randomization (Screening) Phase, an Open-label Treatment Phase, and a Post-treatment Phase. Approximately 680 subjects with previously untreated multiple myeloma were randomly assigned to one of two treatment groups and were stratified according to baseline β2-microglobulin, baseline albumin levels and region (North America, Europe, other). Subjects received either VELCADE™/Melphalan/Prednisone (VMP) (Treatment Group A) or Melphalan/Prednisone (MP) (Treatment Group B). Subjects in Treatment Group A received VELCADE™ 1.3 mg/m^2 (twice weekly [Weeks 1, 2, 4, and 5] for four 6-week cycles [8 doses per cycle] followed by once weekly [Weeks 1, 2, 4, and 5] for five 6-week cycles [4 doses per cycle]) in combination with melphalan 9 mg/m^2 and prednisone 60 mg/m^2 (once daily on Days 1 to 4 of each 6-week cycle). Subjects in Treatment Group B received 9 cycles of melphalan 9 mg/m^2 and prednisone 60 mg/m^2 once daily on Days 1 to 4 of each 6-week cycle. For both groups, treatment continued for a maximum of 9 cycles (54 weeks) and subjects were discontinued if disease progression or an unacceptable treatment-related toxicity occurred, or if a subject withdrew consent.
Included in the analysis are the 368 subjects who met all of the following criteria: consented to DNA analysis; had usable genotype data for SNPs listed in Appendix 1; had Adverse Event related clinical data before treatment and after at least one cycle of VELCADE™ treatment (including those having neurological events and those completing treatment with no neurological event). These 368 subjects included: Treatment Group A (154 Caucasian, 2 black, 10 Asian); Treatment Group B (168 Caucasian, 4 black, 12 Asian), and 18 were not treated.
The primary adverse event endpoints are the treatment-emergent peripheral neuropathies caused by VELCADE™, including peripheral neuropathy NEC, peripheral sensory neuropathy, and neuralgia. For each specific peripheral neuropathy endpoint, the null hypothesis was that none of the successfully genotyped SNPs is associated with this specific treatment-emergent peripheral neuropathy. Each successfully genotyped SNP is tested to see whether there is a difference in the distribution of the genotypes of this SNP between patients with and without this specific VELCADE™ treatment-emergent peripheral neuropathy. The test result is subsequently adjusted by total number of successfully genotyped SNPs to correct multiplicity. […]

Neuralgia [2]: 9 cases
onset rate of peripheral neuropathy event [2]: 44.8%
peripheral neuropathy NEC [2]: 44 cases
peripheral sensory neuropathy [2]: 8 cases
onset of any peripheral neuropathy [4]: 72 events
onset of grade≧2 peripheral neuropathy [4]: 50 events
onset of grade≧3 peripheral neuropathy [4]: 21 events
onset rate of peripheral neuropathy event [4]: 51.8%
Structure (SMILES): CC(C)C[C@H](NC(=O)[C@H](Cc1ccccc1)NC(=O)c1cnccn1)B(O)O [VELCADE, bortezomib]
treatment cycle at which peripheral neuropathy reaches a plateau ([1]; in vivo): 5 cycle
mean rating of associated pain ([1]; scale of 0 for no pain and 10 for worst imaginable pain): 7.8
any one of the three adverse events (AE3) [2]: 51 cases
patients with improvement or resolution of peripheral neuropathy ([3]; after dose discontinuation, patients discontinuing due to Grade 2 PN or who had >Grade 3 PN): 73%
patients with improvement or resolution of peripheral neuropathy ([3]; after dose reduction, patients with >Grade 2 PN): 51%
